How the values were obtained:
HeLa [1] = test: Effect on [3H]thymidine incorporation by HeLa cells measured as percent incorporation compared to control in the presence of drug at a concentration of 25 ug/mL; format: functional, Homo sapiens
P388 [2] = test: Activity against P388 lymphocytic leukemia in BDFR-1 mice measured as percent increase in lifespan (% ILS) relative to controls after intraperitoneal administration of 20 mg/kg; format: functional; settings: Mus musculus, P388, ip
P388 [3] = test: Activity against P388 lymphocytic leukemia in BDFR-1 mice measured as median survival time (MST) after intraperitoneal administration of 5 mg/kg; format: functional, Mus musculus
HeLa [4] = test: Effect on [3H]thymidine incorporation by HeLa cells measured as percent incorporation compared to control in the presence of drug at a concentration of 5 ug/mL; format: functional, Homo sapiens
P388 [5] = test: Activity against P388 lymphocytic leukemia in BDFR-1 mice measured as percent increase in lifespan (% ILS) relative to controls after intraperitoneal administration of 2.5 mg/kg; format: functional; settings: Mus musculus, P388, ip
P388 [6] = test: Activity against P388 lymphocytic leukemia in BDFR-1 mice measured as median survival time (MST) after intraperitoneal administration of 20 mg/kg; format: functional, Mus musculus
P388 [7] = test: Activity against P388 lymphocytic leukemia in BDFR-1 mice measured as median survival time (MST) after intraperitoneal administration of 80 mg/kg; format: functional, Mus musculus
P388 [8] = test: Activity against P388 lymphocytic leukemia in BDFR-1 mice measured as percent increase in lifespan (% ILS) relative to controls after intraperitoneal administration of 80 mg/kg; Toxic; format: functional, organism-based; parameters: dose 80 mg/kg; settings: Mus musculus, at 80 mg/kg
P388 [9] = test: Activity against P388 lymphocytic leukemia in BDFR-1 mice measured as percent increase in lifespan (% ILS) relative to controls after intraperitoneal administration of 40 mg/kg; format: functional; settings: Mus musculus, P388, ip
P388 [10] = test: Activity against P388 lymphocytic leukemia in BDFR-1 mice measured as median survival time (MST) after intraperitoneal administration of 2.5 mg/kg; format: functional, Mus musculus
P388 [11] = test: Activity against P388 lymphocytic leukemia in BDFR-1 mice measured as median survival time (MST) after intraperitoneal administration of 40 mg/kg; format: functional, Mus musculus
HeLa [12] = test: Effect on [3H]-Thymidine incorporation by HeLa cells measured as percent incorporation compared to control 3 hr after washing at a concentration of 5 ug/mL; format: functional, Homo sapiens
P388 [13] = test: Activity against P388 lymphocytic leukemia in BDFR-1 mice measured as percent increase in lifespan (% ILS) relative to controls after intraperitoneal administration of 10 mg/kg; format: functional; settings: Mus musculus, P388, ip
P388 [14] = test: Activity against P388 lymphocytic leukemia in BDFR-1 mice measured as median survival time (MST) after intraperitoneal administration of 10 mg/kg; format: functional, Mus musculus
HeLa [15] = test: Effect on [3H]thymidine incorporation by HeLa cells measured as percent incorporation compared to control 3 h after washing at a concentration of 25 ug/mL; format: functional, Homo sapiens
P388 [16] = test: Activity against P388 lymphocytic leukemia in BDFR-1 mice measured as percent increase in lifespan (% ILS) relative to controls after intraperitoneal administration of 5 mg/kg; format: functional; settings: Mus musculus, P388, ip
HeLa [17] = test: Effect on [3H]-Thymidine incorporation by HeLa cells measured as percent incorporation compared to control in the presence of drug at a concentration of 5 ug/mL; format: functional, Homo sapiens
HeLa [18] = test: Effect on [3H]thymidine incorporation by HeLa cells measured as percent incorporation compared to control 3 h after washing at a concentration of 5 ug/mL; format: functional, Homo sapiens
HeLa [19] = test: Effect on [3H]-Thymidine incorporation by HeLa cells measured as percent incorporation compared to control 3 hr after washing at a concentration of 25 ug/mL; format: functional, Homo sapiens
HeLa [20] = test: Effect on [3H]-Thymidine incorporation by HeLa cells measured as percent incorporation compared to control 3 hr after washing at a concentration of 10 ug/mL; format: functional, Homo sapiens
HeLa [21] = test: Effect on [3H]-Thymidine incorporation by HeLa cells measured as percent incorporation compared to control in the presence of drug at a concentration of 10 ug/mL; format: functional, Homo sapiens
P388 [22] = test: Activity against P388 lymphocytic leukemia in BDFR-1 mice measured as percent increase in lifespan (% ILS) relative to controls after intraperitoneal administration of 80 mg/kg; format: functional; settings: Mus musculus, P388, ip

Compound	Incorporation (HeLa [1]) [%]	ILS at 20 mg/kg (P388 [2]) [%]	MST (P388 [3])	Incorporation (HeLa [4]) [%]	MST (P388 [6])	MST (P388 [7])	ILS at 40 mg/kg (P388 [9]) [%]	MST (P388 [11])	Incorporation (HeLa [12]) [%]	ILS at 10 mg/kg (P388 [13]) [%]	MST (P388 [14])	Incorporation (HeLa [15]) [%]	ILS at 5 mg/kg (P388 [16]) [%]	also measured
CNC(=O)OCc1c2ccncc2c(C)c2c1[nH]c1ccccc12	27	50	16	59	15	6	0	10	18	110	21	3	60	ILS at 2.5 mg/kg (P388 [5]): 80%; ILS (P388 [8]): Toxic; MST (P388 [10]): 18
Cc1c2ccncc2c(C)c2c1[nH]c1ccccc12 [ELLIPTECINE]	8	30	12	–	13	–	60	16	–	30	13	–	20	Incorporation (HeLa [17]): 65%; Incorporation (HeLa [18]): 78%; Incorporation (HeLa [19]): 25%; Incorporation (HeLa [20]): 47%; Incorporation (HeLa [21]): 56%
Cc1c2cnccc2c(CO)c2[nH]c3ccccc3c12	22	65	13	67	16.5	18	65	16.5	88	45	14.5	52	30	ILS at 80 mg/kg (P388 [22]): 80%
